Laboratory results reported in PubChem BioAssay AID330 (DTP/NCI, 2004).
Inconclusive results and toxic doses are left out. Rule for the calls: active = survival T/C of 150% or more; inactive = T/C below 125% in these data.

Tested on: P388 leukemia ip, CD2F1 mice, survival T/C
Assay: NCI In Vivo Anticancer Drug Screen. Data for tumor model P388 Leukemia (intraperitoneal) in CD2F1 (CDF1) mice
Conditions: endpoint: median survival time, higher = longer survival
Method in brief: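 Mice carrying the transplanted tumor received test compound or vehicle. Survival was recorded in each group, and the value is the treated-group measurement divided by that of the vehicle-treated control group.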

[1] = dose: 50.0 mg/kg/injection, schedule: Q01DX009 (ip), vehicle: Klucel (hydroxypropylcellulose) (HPC)
[2] = dose: 100.0 mg/kg/injection, schedule: Q01DX009 (ip), vehicle: Klucel (hydroxypropylcellulose) (HPC)
[3] = dose: 200.0 mg/kg/injection, schedule: Q01DX009 (ip), vehicle: Klucel (hydroxypropylcellulose) (HPC)
[4] = dose: 60.0 mg/kg/injection, schedule: Q01DX005 (ip), vehicle: Klucel (hydroxypropylcellulose) (HPC)
[5] = dose: 120.0 mg/kg/injection, schedule: Q01DX005 (ip), vehicle: Klucel (hydroxypropylcellulose) (HPC)
[6] = dose: 240.0 mg/kg/injection, schedule: Q01DX005 (ip), vehicle: Klucel (hydroxypropylcellulose) (HPC)
[7] = dose: 50.0 mg/kg/injection, schedule: Q01DX005 (ip), vehicle: Klucel (hydroxypropylcellulose) (HPC)
[8] = dose: 100.0 mg/kg/injection, schedule: Q01DX005 (ip), vehicle: Klucel (hydroxypropylcellulose) (HPC)
[9] = dose: 200.0 mg/kg/injection, schedule: Q01DX005 (ip), vehicle: Klucel (hydroxypropylcellulose) (HPC)
[10] = dose: 50.0 mg/kg/injection, schedule: Q01DX009 (ip), vehicle: saline with Tween-80
[11] = dose: 100.0 mg/kg/injection, schedule: Q01DX009 (ip), vehicle: saline with Tween-80
[12] = dose: 200.0 mg/kg/injection, schedule: Q01DX009 (ip), vehicle: saline with Tween-80
[13] = dose: 50.0 mg/kg/injection, schedule: Q01DX005 (ip), vehicle: saline with Tween-80
[14] = dose: 100.0 mg/kg/injection, schedule: Q01DX005 (ip), vehicle: saline with Tween-80
[15] = dose: 200.0 mg/kg/injection, schedule: Q01DX005 (ip), vehicle: saline with Tween-80

Measured: T/C

Cc1cc2c(c3oc(C4(C)OC4C4OC4C)cc(=O)c13)C(=O)c1c(O)c(C3CC(C)(N(C)C)C(O)C(C)O3)cc(C3CC(N(C)C)C(O)C(C)O3)c1C2=O (stereo not given)
inactive: dose: 0.02 mg/kg/injection, schedule: Q03HX008 (ip), vehicle: saline 122 % of control | dose: 0.02 mg/kg/injection, schedule: Q03HX016 (ip), vehicle: saline 113 % of control | dose: 0.03 mg/kg/injection, schedule: Q01DX009 (ip), vehicle: saline 95 % of control | dose: 0.03 mg/kg/injection, schedule: Q03HX008 (ip), vehicle: saline 118 % of control | dose: 0.03 mg/kg/injection, schedule: Q03HX016 (ip), vehicle: saline 109 % of control | dose: 0.06 mg/kg/injection, schedule: Q01DX005 (ip), vehicle: saline 100 % of control | dose: 0.06 mg/kg/injection, schedule: Q01DX009 (ip), vehicle: saline 104 % of control | dose: 0.06 mg/kg/injection, schedule: Q03HX008 (ip), vehicle: saline 122 % of control | dose: 0.12 mg/kg/injection, schedule: Q03HX016 (ip), vehicle: saline 113 % of control | dose: 6.25 micrograms/kg/injection, schedule: Q01DX009 (ip), vehicle: saline 123 % of control | dose: 10.0 micrograms/kg/injection, schedule: Q01DX009 (ip), vehicle: water 99 % of control | dose: 12.5 micrograms/kg/injection, schedule: Q01DX009 (ip), vehicle: saline 101 % of control
active: dose: 0.02 mg/kg/injection, schedule: Q01DX005 (ip), vehicle: saline 150 % of control | dose: 0.03 mg/kg/injection, schedule: Q04DX003 (ip), vehicle: saline 150 % of control | dose: 0.06 mg/kg/injection, schedule: Q04DX003 (ip), vehicle: saline 150 % of control | dose: 0.06 mg/kg/injection, schedule: Q08DX002 (ip), vehicle: saline 150 % of control | dose: 0.12 mg/kg/injection, schedule: Q01DX001 (ip), vehicle: saline 150 % of control

C[PH+](C)C.C[PH+](C)C.[Au]
inactive: dose: 1.25 mg/kg/injection, schedule: Q01DX009 (ip), vehicle: saline 112 % of control | dose: 2.5 mg/kg/injection, schedule: Q01DX009 (ip), vehicle: saline 114 % of control | dose: 5.0 mg/kg/injection, schedule: Q01DX009 (ip), vehicle: saline 116 % of control

Cc1ccc([N+](=O)[O-])cc1I
inactive: [1] 99 % of control | [2] 99 % of control | [3] 100 % of control

COc1cc(C2c3cc4c(cc3OC3(O)C=C(C)OC(=O)C23)OCO4)cc(OC)c1OC (stereo not given)
inactive: [4] 94 % of control | [5] 94 % of control | [6] 110 % of control

CCCCCCCCCC[n+]1cccc(C(N)=O)c1
inactive: dose: 5.0 mg/kg/injection, schedule: Q01DX009 (ip), vehicle: saline with Tween-80 100 % of control | dose: 10.0 mg/kg/injection, schedule: Q01DX009 (ip), vehicle: saline with Tween-80 109 % of control | dose: 20.0 mg/kg/injection, schedule: Q01DX009 (ip), vehicle: saline with Tween-80 113 % of control

CCOC(=O)C(CC(C(=O)O)c1ccccc1)c1ccccc1 (stereo not given)
inactive: [7] 100 % of control | [8] 96 % of control | [9] 96 % of control

COc1cc(O)c2c(-c3cc(O)ccc3O)cc(=O)oc2c1
inactive: [4] 94 % of control | [5] 88 % of control | [6] 96 % of control

Clc1ccc(N=NN2CCc3ccccc3C2)cc1
inactive: [1] 99 % of control | [2] 99 % of control | [3] 93 % of control

Cc1ccc(-c2nnc(N)o2)cc1
inactive: dose: 60.0 mg/kg/injection, schedule: Q01DX005 (ip), vehicle: saline with Tween-80 100 % of control | dose: 120.0 mg/kg/injection, schedule: Q01DX005 (ip), vehicle: saline with Tween-80 100 % of control | dose: 240.0 mg/kg/injection, schedule: Q01DX005 (ip), vehicle: saline with Tween-80 99 % of control

COc1ccc(Br)cc1
inactive: [10] 104 % of control | dose: 50.0 mg/kg/injection, schedule: Q04DX003 (ip), vehicle: saline 100 % of control | [11] 118 % of control | dose: 100.0 mg/kg/injection, schedule: Q04DX003 (ip), vehicle: saline 105 % of control | [12] 109 % of control | dose: 200.0 mg/kg/injection, schedule: Q04DX003 (ip), vehicle: saline 110 % of control

C=C=CC(C)(O)c1ccc(-c2ccccc2)cc1 (stereo not given)
inactive: [7] 97 % of control | [8] 100 % of control | [9] 104 % of control

O=c1ccocc1OC1OC(CO)C(O)C(O)C1O (stereo not given)
inactive: dose: 5.75 mg/kg/injection, schedule: Q01DX005 (ip), vehicle: saline 95 % of control | dose: 11.5 mg/kg/injection, schedule: Q01DX005 (ip), vehicle: saline 113 % of control | dose: 23.0 mg/kg/injection, schedule: Q01DX005 (ip), vehicle: saline 106 % of control | dose: 46.0 mg/kg/injection, schedule: Q01DX005 (ip), vehicle: saline 105 % of control

CCn1c(=O)c2c(N(CCO)CCO)snc2n(CC)c1=O
inactive: dose: 100.0 mg/kg/injection, schedule: Q04DX002 (ip), vehicle: suspension in saline 104 % of control | dose: 200.0 mg/kg/injection, schedule: Q04DX002 (ip), vehicle: suspension in saline 101 % of control | dose: 400.0 mg/kg/injection, schedule: Q04DX002 (ip), vehicle: suspension in saline 102 % of control

O=C(O)CBr
inactive: dose: 25.0 mg/kg/injection, schedule: Q01DX005 (ip), vehicle: other 110 % of control

CC(=O)OC1=C(C)[C@@H]2CC(=O)O[C@@H]3C[C@H]4[C@H](C)C[C@H](O)[C@H](O)[C@]4(C)[C@@H](C1=O)[C@@]32C
inactive: dose: 0.5 mg/kg/injection, schedule: Q01DX005 (ip), vehicle: saline + alcohol 101 % of control | dose: 1.0 mg/kg/injection, schedule: Q01DX005 (ip), vehicle: saline + alcohol 103 % of control | dose: 2.0 mg/kg/injection, schedule: Q01DX005 (ip), vehicle: saline + alcohol 115 % of control | dose: 4.0 mg/kg/injection, schedule: Q01DX005 (ip), vehicle: saline + alcohol 111 % of control | dose: 8.0 mg/kg/injection, schedule: Q01DX005 (ip), vehicle: saline + alcohol 115 % of control | dose: 16.0 mg/kg/injection, schedule: Q01DX005 (ip), vehicle: saline + alcohol 101 % of control | dose: 32.0 mg/kg/injection, schedule: Q01DX005 (ip), vehicle: saline + alcohol 94 % of control

Clc1ccc(C2N(Cc3ccccc3)CCC3CCCCN32)cc1Cl (stereo not given)
inactive: [10] 87 % of control | [11] 91 % of control

COc1cccc(CSCC(N)C(=O)O)c1 (stereo not given)
inactive: [13] 104 % of control | [14] 104 % of control | [15] 90 % of control

CC1(C)CC(OP(=[Se])(OC2CC(C)(C)N(O)C(C)(C)C2)OC2CC(C)(C)N(O)C(C)(C)C2)CC(C)(C)N1O
inactive: dose: 12.5 mg/kg/injection, schedule: Q01DX001 (ip), vehicle: Klucel (hydroxypropylcellulose) (HPC) 97 % of control | dose: 25.0 mg/kg/injection, schedule: Q01DX001 (ip), vehicle: Klucel (hydroxypropylcellulose) (HPC) 102 % of control | dose: 50.0 mg/kg/injection, schedule: Q01DX001 (ip), vehicle: Klucel (hydroxypropylcellulose) (HPC) 104 % of control

O=C1CS(=O)(=O)C(c2ccccc2)N1N1C(=O)CS(=O)(=O)C1c1ccccc1 (stereo not given)
inactive: [13] 104 % of control | [14] 104 % of control | [15] 92 % of control

CCOC(=O)CCCCCOCOC
inactive: dose: 100.0 mg/kg/injection, schedule: Q01DX001 (ip), vehicle: saline with Tween-80 106 % of control | dose: 200.0 mg/kg/injection, schedule: Q01DX001 (ip), vehicle: saline with Tween-80 98 % of control | dose: 400.0 mg/kg/injection, schedule: Q01DX001 (ip), vehicle: saline with Tween-80 106 % of control

CC(C)(C)NCC(O)CSc1nc(-c2ccc(C(N)=O)s2)cs1 (stereo not given)
inactive: [10] 100 % of control | [11] 109 % of control | [12] 109 % of control

CN1CCC2(CC1)COCc1ccccc12
inactive: dose: 25.0 mg/kg/injection, schedule: Q01DX009 (ip), vehicle: saline with Tween-80 101 % of control | [10] 104 % of control

CCOP(=O)(OCC)Oc1cnn(C)c(=O)c1SCC
inactive: dose: 0.78 mg/kg/injection, schedule: Q01DX005 (ip), vehicle: saline 98 % of control
